# From patent publication US8524691B2, “Phosphonated rifamycins and uses thereof for the prevention and treatment of bone and joint infections” (The Medicines Company, priority 2008, dated 2013)
# Read-outs that look alike come from different tables or passages of the source.
# Key:
# [1] = tested on: S. aureus ATCC 13709^A, Novobiocin and Rifampicin resistant variant; assay: Antibacterial susceptibility (MIC), NCCLS broth microdilution; type: cell-based
# Procedure: (§1) Susceptibility of S. aureus strains to the known antibiotics and synthesized compounds was determined by following the guidelines set by NCCLS (M26-A). Compounds were diluted two-fold serially in DMSO and transferred to cation-adjusted Mueller Hinton broth (CAMHB; Becton Dickinson). 50 μL of compounds diluted in CAMHB was mixed with 100 μL of bacteria diluted in CAMHB in 96-well microtiter plates. The final concentration of micro-organisms in the assay was 5×10^5c.f.u. per mL and the final concentration of DMSO in the assay was 1.25%. Assays were set up in duplicate and incubated at 37° C. for 18 h. The lowest concentration of compound that inhibited visible growth was reported as the minimum inhibitory concentration (MIC).
# [2] = tested on: S. aureus ATCC 29213; assay: as above; type: cell-based; settings: for Minimum inhibitory concentration, S. aureus ATCC 29213: CAMHB, 37° C., 18 h
# Procedure: as §1
# [3] = tested on: S. aureus ATCC 13709; assay: microbe, parasite or virus in culture; type: cell-based; settings: for Minimum inhibitory concentration, S. aureus ATCC 13709: CAMHB, 37° C., 18 h; for Antibacterial activity (in words, from Table 1): S. aureus MIC
# Procedure: as §1
# [4] = tested on: S. aureus ATCC 13709; assay: microbe, parasite or virus in culture; type: cell-based; settings: for MIC: Staphylococcus aureus, ATCC13709, 18 h
# Procedure: as §1
# Susceptibility testing experiments were also carried out in the presence of serum. These experiments were carried out similar to the susceptibility testing with the following modifications. 75 μL of compounds diluted in CAMHB was mixed with 75 μL of bacteria diluted in 100% serum from any given source (commercial pooled mouse serum (MS) and human serum (HS), Equitech-Bio Inc.) or diluted in 8% purified human serum albumin (HSA) (Calbiochem). The final concentration of animal serum in the assay was 50% and the final concentration of purified human serum albumin in the assay was 4%; the concentrations of all other components were identical to those described for susceptibility testing.
# [5] = type: in vitro ADME; settings: for % Conversion (prodrug converted to parent drug after binding to bone): 24 h incubation, 37° C.
# Procedure: Amounts of parent drug “regenerated” from the phosphonated prodrug were measured as follows. Washed bone powder-bound prodrugs from the above experiment were resuspended in 400 μL PBS+2% DMSO or in 400 μL 50% (v/v in PBS+2% DMSO) human or rat serum. The suspension was incubated overnight at 37° C., centrifuged at 13,000 rpm for 2 min and the supernatant was recovered. The amount of regenerated parent drug in the supernatant was determined by measurements using the microbiological assay that was previously described for the prodrugs themselves. The amount of prodrug was deduced from standard curves of known amounts of parent drug that were used as reference for each experiment. The amount of regenerated drug assessed by this bioassay was corroborated by MIC determination. The percentage of drug regenerated in PBS or serum after the overnight incubation (Table 2) was deduced from the difference between the amount of bound prodrug and the amount of regenerated drug (not shown).
# [6] = tested on: Novobiocin resistant mutant strain of S. aureus ATCC 13709; assay: Prophylactic efficacy in rat model of S. aureus bone infection; type: in vivo; settings: for Measured bacterial titer, test compound: 20 mg/kg parent drug equivalent, tibia 24 h postinfection; for Prophylactic activity in rat bone infection model (in words): 20 mg/kg, 1 day or 5 days prior to infection
# Procedure: To determine the in vivo activity of bisphosphonated prodrugs of Rifamycin derived antibacterials in comparison to their non-bisphosphonated parents, compounds 18, 19, 48a, 59, 66, 89, 95, 102, 110, 142b and 164 and their parent drug rifabutin were used as prophylactic therapeutics in an animal model of infection. Specifically, a spontaneous Novobiocin resistant mutant strain of S. aureus ATCC 13709 (a clinical osteomyelitis isolate), was grown overnight at 37° C. in brain heart infusion broth (BHIB). After 16 h of growth, cells were subcultured into fresh BHIB and incubated for 4 to 5 h at 37° C. The cells were washed twice with phosphate-buffered saline (PBS) and resuspended in BHIB supplemented with 10% (vol./vol.) fetal bovine serum at a density of approximately 10^10 colony forming units (CFU)/ml (based upon turbidimetry). The suspension was aliquoted and a portion was used to check the CFU count. The culture was stored frozen (−80° C.) and was used without subculture. For use as an inoculum the culture was thawed, diluted in PBS and kept in an ice bath until it was used.
# Animals were infected as described by O'Reilly et al. (Antimicrobial Agents and Chemotherapy (1992), 36(12): 2693-97) to generate the bone infection. Female CD rats (age, 57 to 70 days; n=5/group; Charles River, St-Constant, Canada) were anaesthetized by isofluorane before and during the surgery. Following complete induction of anesthesia, the rat was placed ventral side up and hair was shaved from the surgical site. The skin over the leg was cleaned and disinfected (proviodine-ethanol 70%). A longitudinal incision below the knee joint was made in the sagital plane. The incision was made over the bone below the “knee joint” (tibia head or condyle) but not completely extending to the ankle. A high speed drill fitted with a 2 mm bulb bit was used to drill a hole into the medullar cavity of the tibia. Rats were injected intra-tibially with 0.05 ml 5% sodium morrhuate (sclerosing agent) and then with 0.05 ml of S. aureus suspension (ca. 2×10^7 CFU/rat). The hole was sealed by applying a small amount of dry dental cement which immediately absorbs fluids and adheres to the site. The wound was closed using 3 metal skin clips. Moxifloxacin (as a positive control) was injected once at 10 mg/kg intravenously 1 h postinfection in saline, while the Rifabutin derived prodrugs (prepared in 0.9% saline) were injected at the dose indicated in Table 3 as a single intravenous bolus at different time points prior to the infection.
# Infected rats were sacrificed by CO2 asphyxiation 24 h postinfection to monitor the bacterial CFU count. Infected tibiae were removed, dissected free of soft tissue, and weighed. The bones were ground, 50 mg of charcoal were added and the powder was resuspended in 5 ml 0.9% NaCl, serially diluted and processed for quantitative cultures. Treatment efficacy was measured in terms of Log viable bacteria (Log CFU per gram of bone). […] The limit of detection is 2 Log CFU. Statistical comparisons of viable bacterial counts for the different treated and untreated groups were performed with the Dunnett's multiple-comparison test. Differences were considered significant when the P value was <0.05 when comparing treated infected animals to the untreated infected ones. The doses used, the amount of time separating the treatment from the time of infection and the treatment outcomes are shown in Table 3.
# [7] = single intravenous bolus 1 day prior to infection
# [8] = single intravenous bolus 5 days prior to infection
SMILES,"Minimum inhibitory concentration, S. aureus ATCC 13709^A [1]","Minimum inhibitory concentration, S. aureus ATCC 29213 [2]","Minimum inhibitory concentration, S. aureus ATCC 13709 [3]","Antibacterial activity (in words, from Table 1) [3]","Minimum inhibitory concentration, ATCC 13709 + 50% Human Serum [4]","Minimum inhibitory concentration, ATCC 13709 + 50% Mouse Serum [4]","Minimum inhibitory concentration, ATCC 13709 + 50% Rat Serum [4]","Measured bacterial titer, test compound [6, 7]","Measured bacterial titer, test compound [6, 8]",Prophylactic activity in rat bone infection model (in words) [6],also measured
CCN(CC)CC.CCN(CC)CC.CO[C@H]1/C=C/O[C@@]2(C)Oc3c(C)c(O)c4c(c3C2=O)C2=NC3(CCN(CC(C)C)CC3)N(C(=O)OCc3ccc(OC(=O)CCCC(P(=O)(O)O)P(=O)(O)O)cc3)C2=C(NC(=O)/C(C)=C\C=C\[C@H](C)[C@H](O)[C@@H](C)[C@@H](O)[C@@H](C)[C@H](OC(C)=O)[C@@H]1C)C4=O [Compound 18],>128 µg/mL,0.125 µg/mL,0.125 µg/mL,very low MICs whether in the absence or in the presence of serum,0.125 µg/mL,0.125 µg/mL,0.0156 µg/mL,2.08 ± 0.02 Log CFU/g of bone,2.91 ± 1.33 Log CFU/g of bone,active at 1 day and display activity similar to rifabutin at 5 days,"Release of parent rifabutin from bone powder-bound prodrug (in words) [5]: release significant amounts of the parent rifabutin once bound to bone powder, regardless of the presence of serum; % Conversion (prodrug converted to parent drug after binding to bone) ([5]; 50% Heat Inactivated Rat Serum): 0.55 ± 0.20%; % Conversion (prodrug converted to parent drug after binding to bone) ([5]; 50% Rat Serum): 0.95 ± 0.40%; % Conversion (prodrug converted to parent drug after binding to bone) ([5]; PBS): 0.66 ± 0.03%"
CCCC(=O)OCCN(CCCCC(P(=O)(O)O)P(=O)(O)O)CC(=O)O[C@@H]1[C@@H](C)[C@@H](O)[C@@H](C)[C@H](OC(C)=O)[C@H](C)[C@@H](OC)/C=C/O[C@@]2(C)Oc3c(C)c(O)c4c(c3C2=O)C2=NC3(CCN(CC(C)C)CC3)NC2=C(NC(=O)/C(C)=C\C=C\[C@@H]1C)C4=O [Compound 48a],>128 µg/mL,2 µg/mL,2 µg/mL,,8 µg/mL,2 µg/mL,0.25 µg/mL,2.53 ± 0.94 Log CFU/g of bone,2.65 ± 0.85 Log CFU/g of bone,more potent than rifabutin at 5 days,Serum dependence of antibacterial activity (in words) ([4]; MIC with versus without serum): significant increase in antibacterial activity in serum
CCC(=O)OCOC(=O)NCC(=O)OCCN(CCCCC(P(=O)(O)O)P(=O)(O)O)CC(=O)O[C@@H]1[C@@H](C)[C@@H](O)[C@@H](C)[C@H](OC(C)=O)[C@H](C)[C@@H](OC)/C=C/O[C@@]2(C)Oc3c(C)c(O)c4c(c3C2=O)C2=NC3(CCN(CC(C)C)CC3)NC2=C(NC(=O)/C(C)=C\C=C\[C@@H]1C)C4=O [Compound 59],,,,very low MICs whether in the absence or in the presence of serum,,,,1.95 ± 0.06 Log CFU/g of bone,,,"MIC ([1]; Staphylococcus aureus, ATCC13709, read-out: Minimum inhibitory concentration, S. aureus ATCC 13709^A): > 128 µg/mL; MIC ([2]; Staphylococcus aureus, ATCC29213, 18 h, read-out: Minimum inhibitory concentration, S. aureus ATCC 29213): 0.125 µg/mL; MIC ([3]; Staphylococcus aureus, ATCC13709, 18 h, read-out: Minimum inhibitory concentration, S. aureus ATCC 13709): 0.125 µg/mL; MIC ([4]; read-out: Minimum inhibitory concentration, ATCC 13709 + 50% Human Serum): 0.0625 µg/mL; MIC ([4]; read-out: Minimum inhibitory concentration, ATCC 13709 + 50% Mouse Serum): 0.0312 µg/mL; MIC ([4]; read-out: Minimum inhibitory concentration, ATCC 13709 + 50% Rat Serum): 0.008 µg/mL"
